Assay results from ChEMBL document CHEMBL4680113, “Tigliane Diterpenoids as a New Type of Antiadipogenic Agents Inhibit GRα-Dexras1 Axis in Adipocytes” (J Med Chem, 2019).
Active and inactive are the calls of the source. No cut-off for these calls is given here.

Experiments:
3T3-L1 [1] = assay: Inhibition of GR-alpha in mouse 3T3-L1 cells assessed as reduction in GR-alpha interaction with C/EBP-beta at 1 uM incubated for 8 hrs by ChIP assay; type: cell-based
3T3-L1 [2] = assay: Inhibition of cell differentiation in mouse 3T3-L1 cells assessed as reduction in adipogenic cocktail-induced triglyceride levels at 1 uM incubated for 0 to 6 days by Oil-Red O staining; type: functional, cell-based; details: time 0-6 day
3T3-L1 [3] = assay: Inhibition of adipogenic cocktail-induced GR-beta protein expression in mouse 3T3-L1 cells at 1 to 10 uM incubated for 4 to 24 hrs by Western blot analysis; type: functional, cell-based; details: dose 1-10 µM, time 4-24 hrs
3T3-L1 [4] = assay: Inhibition of GR-alpha in mouse 3T3-L1 cells assessed as reduction in adipogenic cocktail-induced Dexras1 protein expression incubated for 0.5 to 24 hrs by Western blot analysis; type: cell-based; details: time 0.5-24 hrs
[5] = Toxicity in mouse 3T3-L1 cells assessed as reduction in cell viability incubated for 6 days by MTT assay; type: cell-based
3T3-L1 [6] = assay: Inhibition of adipogenic cocktail-induced C/EBPbeta mRNA expression in mouse 3T3-L1 cells incubated for 24 hrs by RT-qPCR analysis; type: functional, cell-based
3T3-L1 [7] = assay: Inhibition of adipogenic cocktail-induced C/EBPdelta protein expression in mouse 3T3-L1 cells incubated for 24 hrs by Western blot analysis; type: functional, cell-based
3T3-L1 [8] = assay: Inhibition of adipogenic cocktail-induced SCD1 mRNA expression in mouse 3T3-L1 cells incubated for 6 days by RT-qPCR analysis; type: functional, cell-based; details: time 6.0 day
3T3-L1 [9] = assay: Inhibition of adipogenic cocktail-induced GR-alpha nuclear translocation in mouse 3T3-L1 cells at 1 uM after 8 hrs by immunofluorescence assay; type: cell-based
3T3-L1 [10] = assay: Inhibition of adipogenic cocktail-induced C/EBP-delta protein expression in mouse 3T3-L1 cells at 1 to 10 uM incubated for 0.5 hrs by Western blot analysis; type: functional, cell-based; details: dose 1-10 µM
HepG2 [11] = assay: Lipid lowering activity in human HepG2 cells assessed as reduction in high-glucose induced triglyceride levels at 10 uM incubated for 24 hrs by GPO-POD assay; type: functional, cell-based
3T3-L1 [12] = assay: Inhibition of adipogenic cocktail-induced C/EBP-beta mRNA expression in mouse 3T3-L1 cells at 1 to 10 uM incubated for 0.5 hrs by RT-qPCR analysis; type: functional, cell-based; details: dose 1-10 µM
3T3-L1 [13] = assay: Inhibition of GR-alpha in mouse 3T3-L1 cells assessed as reduction in GR-alpha interaction with Dexras1 at 1 uM incubated for 8 hrs by ChIP assay; type: cell-based
3T3-L1 [14] = assay: Inhibition of adipogenic cocktail-induced GR-beta nuclear translocation in mouse 3T3-L1 cells at 1 uM after 8 hrs by Western blot analysis; type: cell-based
3T3-L1 [15] = assay: Lipid lowering activity in mouse 3T3-L1 cells assessed as reduction in adipogenic cocktail-induced triglyceride levels incubated for 6 days by GPO-POD assay; type: functional, cell-based; details: for EC50: 3T3-L1, 144 h; for inhibition: time 6.0 day
3T3-L1 [16] = assay: Inhibition of GR-alpha in mouse 3T3-L1 cells assessed as reduction in GR-alpha interaction with PPAR-gamma at 1 uM incubated for 8 hrs by ChIP assay; type: cell-based
3T3-L1 [17] = assay: Inhibition of adipogenic cocktail-induced GR-alpha protein expression in mouse 3T3-L1 cells at 1 to 10 uM incubated for 4 to 24 hrs by Western blot analysis; type: functional, cell-based; details: dose 1-10 µM, time 4-24 hrs
3T3-L1 [18] = assay: Lipid lowering activity in mouse 3T3-L1 cells assessed as reduction in adipogenic cocktail-induced triglyceride levels at 10 uM incubated for 6 days by GPO-POD assay; type: functional; details: 3T3-L1, 144 h, time 6 day
3T3-L1 [19] = assay: Lipid lowering activity in mouse 3T3-L1 cells assessed as reduction in adipogenic cocktail induced triglyceride levels at 1 uM incubated for 6 days in presence of GR-alpha siRNA by GPO-POD assay; type: functional, cell-based; details: time 6.0 day
3T3-L1 [20] = assay: Inhibition of cell differentiation in mouse 3T3-L1 cells assessed as reduction in adipogenic cocktail-induced triglyceride levels at 1 uM incubated for 0 to 6 days by GPO-POD assay; type: functional, cell-based; details: time 0-6 day
3T3-L1 [21] = assay: Toxicity in mouse 3T3-L1 cells assessed as reduction in cell viability at 10 uM incubated for 6 days by LDH release assay; type: cell-based; details: 3t3-l1, 144 h, time 6 day
3T3-L1 [22] = assay: Inhibition of adipogenic cocktail-induced C/EBPalpha mRNA expression in mouse 3T3-L1 cells incubated for 24 hrs by RT-qPCR analysis; type: functional, cell-based
3T3-L1 [23] = assay: Inhibition of adipogenic cocktail-induced SCD1 protein expression in mouse 3T3-L1 cells incubated for 6 days by Western blot analysis; type: functional, cell-based; details: time 6.0 day
3T3-L1 [24] = assay: Inhibition of adipogenic cocktail-induced C/EBP-delta mRNA expression in mouse 3T3-L1 cells at 1 to 10 uM incubated for 0.5 hrs by RT-qPCR analysis; type: functional, cell-based; details: dose 1-10 µM
3T3-L1 [25] = assay: Inhibition of adipogenic cocktail-induced C/EBP-beta protein expression in mouse 3T3-L1 cells at 1 to 10 uM incubated for 0.5 hrs by Western blot analysis; type: functional, cell-based; details: dose 1-10 µM
3T3-L1 [26] = assay: Inhibition of adipogenic cocktail-induced C/EBPalpha protein expression in mouse 3T3-L1 cells incubated for 24 hrs by Western blot analysis; type: functional, cell-based
3T3-L1 [27] = assay: Inhibition of cell differentiation in mouse 3T3-L1 cells assessed as reduction in adipogenic cocktail-induced triglyceride levels at 1 uM incubated for 0 to 3 days by Oil-Red O staining; type: functional, cell-based; details: time 0-3 day
3T3-L1 [28] = assay: Inhibition of adipogenic cocktail-induced FAS mRNA expression in mouse 3T3-L1 cells at 1 uM after 6 days in presence of GR-alpha siRNA by RT-qPCR analysis; type: functional, cell-based; details: time 6.0 day
3T3-L1 [29] = assay: Inhibition of adipogenic cocktail-induced FAS mRNA expression in mouse 3T3-L1 cells incubated for 6 days by RT-qPCR analysis; type: functional, cell-based; details: time 6.0 day
3T3-L1 [30] = assay: Inhibition of adipogenic cocktail-induced GR-beta nuclear translocation in mouse 3T3-L1 cells at 1 uM after 8 hrs by immunofluorescence assay; type: cell-based
[31] = Selectivity index, ratio of IC50 for cytotoxicity against mouse 3T3-L1 cells to EC50 for lipid lowering activity in mouse 3T3-L1 cells
HepG2 [32] = assay: Lipid lowering activity in human HepG2 cells assessed as reduction in high-glucose induced triglyceride levels at 1 uM incubated for 24 hrs by GPO-POD assay; type: functional, cell-based
3T3-L1 [33] = assay: Inhibition of adipogenic cocktail-induced C/EBP-alpha mRNA expression in mouse 3T3-L1 cells at 1 uM after 1 day in presence of GR-alpha siRNA by RT-qPCR analysis; type: functional, cell-based
3T3-L1 [34] = assay: Inhibition of adipogenic cocktail-induced PPARgamma mRNA expression in mouse 3T3-L1 cells incubated for 24 hrs by RT-qPCR analysis; type: functional, cell-based
3T3-L1 [35] = assay: Inhibition of cell differentiation in mouse 3T3-L1 cells assessed as reduction in adipogenic cocktail-induced triglyceride levels at 1 uM incubated for 0 to 3 days by GPO-POD assay; type: functional, cell-based; details: time 0-3 day
3T3-L1 [36] = assay: Lipid lowering activity in mouse 3T3-L1 cells assessed as reduction in adipogenic cocktail-induced triglyceride levels at 1 uM incubated for 6 days by GPO-POD assay; type: functional, cell-based; details: time 6.0 day
3T3-L1 [37] = assay: Lipid lowering activity in mouse 3T3-L1 cells assessed as reduction in adipogenic cocktail-induced triglyceride levels at 1 to 10 uM by Oil-Red O staining; type: functional, cell-based; details: dose 1-10 µM
3T3-L1 [38] = assay: Inhibition of adipogenic cocktail-induced ACC mRNA expression in mouse 3T3-L1 cells incubated for 6 days by RT-qPCR analysis; type: functional, cell-based; details: time 6.0 day

Structure (SMILES)	inhibition (3T3-L1 [1])	inhibition (3T3-L1 [2])	inhibition (3T3-L1 [3])	inhibition (3T3-L1 [4])	IC50 at 6 days [5]	inhibition (3T3-L1 [6])	inhibition (3T3-L1 [7])	inhibition (3T3-L1 [8])	inhibition (3T3-L1 [9])	inhibition (3T3-L1 [10])	inhibition (HepG2 [11])	inhibition (3T3-L1 [12])	inhibition (3T3-L1 [13])	inhibition (3T3-L1 [14])	EC50 (3T3-L1 [15])	inhibition (3T3-L1 [15])	inhibition (3T3-L1 [16])	inhibition (3T3-L1 [17])	inhibition at 10 µM (3T3-L1 [18])	inhibition (3T3-L1 [19])	other results
CC(=O)O[C@@H]1C(C)=C[C@H]2[C@@H]3C(C)(C)[C@]3(OC(=O)C(C)C)[C@H](OC(=O)c3ccccc3)[C@@H](C)[C@]2(O)[C@@H]2C=C(C)C(=O)[C@@H]12	Active	inactive	inactive	Dose-dependent effect	> 100000 nM	Dose-dependent effect	Dose-dependent effect	Dose-dependent effect	Active	inactive	Active	inactive	Active	inactive	320 nM	Dose-dependent effect	Active	inactive	> 50%	Active	inhibition (3T3-L1 [20]): inactive; Activity (3T3-L1 [21]): Non-Toxic; inhibition (3T3-L1 [22]): Dose-dependent effect; inhibition (3T3-L1 [23]): Dose-dependent effect; inhibition (3T3-L1 [24]): inactive; inhibition (3T3-L1 [25]): inactive; inhibition (3T3-L1 [26]): Dose-dependent effect; inhibition (3T3-L1 [27]): Active; inhibition (3T3-L1 [28]): Active; inhibition (3T3-L1 [29]): Dose-dependent effect; inhibition (3T3-L1 [30]): inactive; Selectivity Index [31]: >312; inhibition (HepG2 [32]): Active; inhibition (3T3-L1 [33]): Active; inhibition (3T3-L1 [34]): Dose-dependent effect; inhibition (3T3-L1 [35]): Active; inhibition (3T3-L1 [36]): Active; inhibition (3T3-L1 [37]): Active; inhibition (3T3-L1 [38]): Dose-dependent effect
CC1=C[C@@H]2[C@@H](C1=O)[C@H](O)C(C)=C[C@H]1[C@@H]3C(C)(C)[C@]3(OC(=O)C(C)C)[C@H](OC(=O)c3ccccc3)[C@@H](C)[C@]21O	Active	inactive	inactive	Dose-dependent effect	17200 nM	Dose-dependent effect	Dose-dependent effect	Dose-dependent effect	Active	inactive	Active	inactive	Active	inactive	610 nM	Dose-dependent effect	Active	inactive	> 50%	Active	inhibition (3T3-L1 [20]): inactive; Activity (3T3-L1 [21]): Non-Toxic; inhibition (3T3-L1 [22]): Dose-dependent effect; inhibition (3T3-L1 [23]): Dose-dependent effect; inhibition (3T3-L1 [24]): inactive; inhibition (3T3-L1 [25]): inactive; inhibition (3T3-L1 [26]): Dose-dependent effect; inhibition (3T3-L1 [27]): Active; inhibition (3T3-L1 [28]): Active; inhibition (3T3-L1 [29]): Dose-dependent effect; inhibition (3T3-L1 [30]): inactive; Selectivity Index [31]: 28; inhibition (HepG2 [32]): Active; inhibition (3T3-L1 [33]): Active; inhibition (3T3-L1 [34]): Dose-dependent effect; inhibition (3T3-L1 [35]): Active; inhibition (3T3-L1 [36]): Active; inhibition (3T3-L1 [37]): Active; inhibition (3T3-L1 [38]): Dose-dependent effect
